US4584376A, “1-heterocyclicthio-1-cyclopropanecarbonitriles as crop protectants” (Monsanto Company, priority 1982, dated 1986)
Several values for one entry are separate records, joined by “and”; a condition that tells them apart may be missing. Identical values can stand only once.

What was measured:
Type in all cases: in vivo
[1] = test system: Rice; assay: Greenhouse safening test: % plant inhibition of rice by herbicide with and without safener; settings: approx. 21 days; for % Plant Inhibition, Rice (herbicide plus safener): left-hand figure; for % Plant Inhibition, Rice (herbicide alone): right-hand figure
Procedure: (§1) Seed plantings and the sequential application of the herbicide and safening agents are accomplished in the following manner:
(§2) A fumigated silt loam to top soil is placed in a container and compacted to a depth of approximately 1.27 cm. from the top of said container. A predetermined number of seeds of each of the crop species to be tested are placed on top of the soil. A quantity of soil sufficient to substantially fill the container is measured and placed in a second container. A measured quantity of the herbicide dispersed or dissolved in a suitable carrier is applied to the soil in the second container. A measured quantity of the safening agent dispersed or dissolved in a suitable carrier is thereafter sprayed on the soil already treated with the […]. The soil containing the safening agent and/or herbicide is thoroughly mixed. This mixing is sometimes referred to as incorporation of the herbicide and safening agent into the soil. The mixing or incorporation provides a substantially uniform distribution of the safening agent and herbicide throughout the soil. The seeds are covered with the soil containing the safening agent and/or herbicide or with untreated soil, and the pots are leveled. The pots are then placed on a sand bench in a greenhouse and watered from below as needed. When the seeds are treated with safener, the application of the safener to the soil is omitted. The coated seeds are placed on top of the soil in the pot and the balance of the treatment procedure is the same. The plants are observed at the end of approximately 21 days and the results in terms of percent inhibition of growth are recorded.
(§3) For each test series, a pot is also prepared containing no herbicide and no safening agent as a control. For each treatment, the herbicidal activity is observed on pots treated with the same quantity of herbicide alone. The results are observed and recorded as percent inhibition of each plant species tested. The tank mixes of know herbicides, safeners or combinations thereof were prepared by dissolving the appropriate amount of active ingredient in acetone. In Table 2 the results of testing the compounds of the present invention have been set forth. The rates of herbicide application are given in kilograms per hectare. In each treatment the amount of safener employed was 9.0 kilograms per hectare. In the % Plant Inhibition section of Table 2 under the listed crop columns the data are the inhibitions for herbicide plus safener on the left side and for the herbicide alone on the right side. The known herbicides are identified as follows. Throughout the examples, the herbicides are individually identified by reference numbers H-1 and H-2.

[2] = test system: Wheat; assay: Greenhouse safening test: % plant inhibition of wheat by herbicide with and without safener; settings: approx. 21 days; for % Plant Inhibition, Wheat (herbicide plus safener): H-1 (alachlor) 2.2 kg/ha plus safener 9.0 kg/ha, left-hand figure
Procedure: as §1, §2, §3

[3] = test system: Sorghum; assay: Greenhouse safening test: % plant inhibition of sorghum by herbicide with and without safener; settings: approx. 21 days; for % Plant Inhibition, Sorghum (herbicide plus safener): H-1 (alachlor) 2.2 kg/ha plus safener 9.0 kg/ha, left-hand figure
Procedure: as §1, §2, §3

[4] = H-2 (butachlor) 4.5 kg/ha plus safener 9.0 kg/ha
[5] = H-1 (alachlor) 2.2 kg/ha alone, right-hand figure

| Compound | % Plant Inhibition, Rice (herbicide plus safener) [1, 4] | % Plant Inhibition, Wheat (herbicide plus safener) [2] | % Plant Inhibition, Sorghum (herbicide plus safener) [3] | other results |
| --- | --- | --- | --- | --- |
| Cn1c(SC2(C#N)CC2)nnc1C(F)(F)F [Compound 1, 1([4-methyl-5-(trifluoromethyl)4H.1,2,4-triazol-3 yl]thio)-1-cyclopropanecarbonitrile] | 95% | 75% | 100% |  |
| Cn1ccnc1SC1(C#N)CC1 [Compound 4, 1-[(1-methyl-1H--imidazol-2-yl)thio]-1-cyclopropanecarbonitrile] | 95% | 100% | 20% |  |
| CCCCOCN(C(=O)CCl)c1c(CC)cccc1CC [Compound H-2, 2-chloro-2',6'-diethyl-N-(butoxymethyl) acetanilide, reference compound] |  |  |  | % Plant Inhibition, Rice (herbicide alone) ([1]; H-2 (butachlor) 4.5 kg/ha alone): 90% and 75% and 60% |
| Cc1ccnc(SC2(C#N)CC2)n1 [Compound 3, 1-[(4-methyl-2-pyrimidinyl)thio]-1-cyclopropanecarbonitrile] | 40% | 90% | 95% |  |
| CCc1cccc(CC)c1N(COC)C(=O)CCl [Compound H-1, 2-chloro-2',6'-diethyl-N-(methoxymethyl) acetanilide, reference compound] |  |  |  | % Plant Inhibition, Rice (herbicide alone) ([1]; H-1 (alachlor) 2.2 kg/ha alone): 90%; % Plant Inhibition, Wheat (herbicide alone) [2, 5]: 90% and 75% and 80%; % Plant Inhibition, Sorghum (herbicide alone) [3, 5]: 90% and 80% and 85% |
| N#CC1(Sc2nc(-c3ccccc3)cs2)CC1 [Compound 2, 1-[(4-phenyl-2-thiazolyl)thio]-1-cyclopropanecarbonitrile] | 90% |  | 45% | % Plant Inhibition, Rice (herbicide plus safener) ([1]; H-1 (alachlor) 2.2 kg/ha plus safener 9.0 kg/ha): 95% |
